Experimental data taken from PMC4450297, “Screening Active Compounds from Garcinia Species Native to China Reveals Novel Compounds Targeting the STAT/JAK Signaling Pathway” (BioMed Research International, 2015).

Assays:
Test in all cases: Cell panel screen (CellTiter-Glo)
Assay type in all cases: cell-based, human
[1] = test system: A498; conditions: A498 (listed under Lung), 20 micromolar, 72 hrs
Method in brief: (§1)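 Values are % growth inhibition: the signal of treated wells was set against untreated (DMSO) wells, with cell-free wells as background. Treatment lasted 72 h at 20 μM final compound, and ATP content was read by luminescence.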

[2] = test system: A704; conditions: A704 (Kidney), 20 micromolar, 72 hrs
Method in brief: as §1

[3] = test system: BT-474; conditions: BT-474 (Breast), 20 micromolar, 72 hrs
Method in brief: as §1

[4] = test system: BT-549; conditions: BT-549 (Breast), 20 micromolar, 72 hrs
Method in brief: as §1

[5] = test system: Bel-7402; conditions: Bel-7402 (Liver), 20 micromolar, 72 hrs
Method in brief: as §1

[6] = test system: C3A; conditions: C3A (Liver), 20 micromolar, 72 hrs
Method in brief: as §1

[7] = test system: C8166; conditions: C8166 (Leukemia), 20 micromolar, 72 hrs
Method in brief: as §1

[8] = test system: CCF-STTG1; conditions: CCF-STTG1 (Brain), 20 micromolar, 72 hrs
Method in brief: as §1

[9] = test system: CW-2; conditions: CW-2 (Colon), 20 micromolar, 72 hrs
Method in brief: as §1

[10] = test system: ChaGo-K-1; conditions: ChaGo-K-1 (Lung), 20 micromolar, 72 hrs
Method in brief: as §1

[11] = test system: Colo 205; conditions: Colo 205, 20 micromolar, 72 hrs
Method in brief: as §1

[12] = test system: HCC1395; conditions: HCC1395 (Breast), 20 micromolar, 72 hrs
Method in brief: as §1

[13] = test system: HCC1569; conditions: HCC1569 (Breast), 20 micromolar, 72 hrs
Method in brief: as §1

[14] = test system: HCC1599; conditions: HCC1599 (Breast), 20 micromolar, 72 hrs
Method in brief: as §1

[15] = test system: HCC1937; conditions: HCC1937 (Breast), 20 micromolar, 72 hrs
Method in brief: as §1

[16] = test system: HEC-1-A; conditions: HEC-1-A (Uterus), 20 micromolar, 72 hrs
Method in brief: as §1

[17] = test system: HGC-27; conditions: HGC-27 (Stomach), 20 micromolar, 72 hrs
Method in brief: as §1

[18] = test system: HPAF-II; conditions: HPAF-II (Pancreas), 20 micromolar, 72 hrs
Method in brief: as §1

[19] = test system: HT-1197; conditions: HT-1197 (Urinary bladder), 20 micromolar, 72 hrs
Method in brief: as §1

[20] = test system: J82; conditions: J82 (Urinary bladder), 20 micromolar, 72 hrs
Method in brief: as §1

[21] = test system: M059J; conditions: M059J (Brain), 20 micromolar, 72 hrs
Method in brief: as §1

[22] = test system: MSTO-211-H; conditions: MSTO-211-H (Lung), 20 micromolar, 72 hrs
Method in brief: as §1

[23] = test system: NCI-H1623; conditions: NCI-H1623 (Lung), 20 micromolar, 72 hrs
Method in brief: as §1

[24] = test system: NCI-H1694; conditions: NCI-H1694 (Lung), 20 micromolar, 72 hrs
Method in brief: as §1

[25] = test system: NCI-H1770; conditions: NCI-H1770 (Lung), 20 micromolar, 72 hrs
Method in brief: as §1

[26] = test system: NCI-H2347; conditions: NCI-H2347 (Lung), 20 micromolar, 72 hrs
Method in brief: as §1

[27] = test system: NCI-H2405; conditions: NCI-H2405 (Lung), 20 micromolar, 72 hrs
Method in brief: as §1

[28] = test system: NCI-H28; conditions: NCI-H28 (Lung), 20 micromolar, 72 hrs
Method in brief: as §1

[29] = test system: NCI-H524; conditions: NCI-H524 (Lung), 20 micromolar, 72 hrs
Method in brief: as §1

[30] = test system: Panc 03.27; conditions: Panc 03.27 (Pancreas), 20 micromolar, 72 hrs
Method in brief: as §1

[31] = test system: RL95; conditions: RL95 (Uterus), 20 micromolar, 72 hrs
Method in brief: as §1

[32] = test system: SW13; conditions: SW13 (Adrenal gland), 20 micromolar, 72 hrs
Method in brief: as §1

[33] = test system: T47D; conditions: T47D (Breast), 20 micromolar, 72 hrs
Method in brief: as §1

[34] = test system: T98G; conditions: T98G (Brain), 20 micromolar, 72 hrs
Method in brief: as §1

[35] = test system: TCCSUP; conditions: TCCSUP (Urinary bladder), 20 micromolar, 72 hrs
Method in brief: as §1

[36] = test system: ZR-75-30; conditions: ZR-75-30 (Breast), 20 micromolar, 72 hrs
Method in brief: as §1

Row | SMILES | Percent Inhibition [1] [%] | Percent Inhibition [2] [%] | Percent Inhibition [3] [%] | Percent Inhibition [4] [%] | Percent Inhibition [5] [%] | Percent Inhibition [6] [%] | Percent Inhibition [7] [%] | Percent Inhibition [8] [%] | Percent Inhibition [9] [%] | Percent Inhibition [10] [%] | Percent Inhibition [11] [%] | Percent Inhibition [12] [%] | Percent Inhibition [13] [%] | Percent Inhibition [14] [%] | Percent Inhibition [15] [%] | Percent Inhibition [16] [%] | Percent Inhibition [17] [%] | Percent Inhibition [18] [%] | Percent Inhibition [19] [%] | Percent Inhibition [20] [%] | also measured
1 | C=C(C)C(O)Cc1c(O)cc2oc3cc(O)c(O)c(CC=C(C)C)c3c(=O)c2c1O (stereo not drawn) [bn-17, Bannaxanthone B] | 54 | 19 | 27 | 34 | 57 | 39 | 71 | 43 | 68 | 73 | 57 | 83 | 51 | 84 | 58 | 46 | 62 | 14 | 44 | 52 | Percent Inhibition [21]: 48%; Percent Inhibition [22]: 70%; Percent Inhibition [23]: 20%; Percent Inhibition [24]: 96%; Percent Inhibition [25]: 12%; Percent Inhibition [26]: 23%; Percent Inhibition [27]: 7%; Percent Inhibition [28]: 69%; Percent Inhibition [29]: -19%; Percent Inhibition [30]: 44%; Percent Inhibition [31]: 45%; Percent Inhibition [32]: 52%; Percent Inhibition [33]: 45%; Percent Inhibition [34]: 94%; Percent Inhibition [35]: 79%; Percent Inhibition [36]: 81%
2 | COc1c(CC=C(C)C)cc2c(=O)c3c(O)cc(O)cc3oc2c1O [gl-16] | 34 | 9 | 16 | 27 | 17 | 45 | 77 | 25 | 55 | 57 | 57 | 69 | 50 | 67 | 50 | 46 | 58 | 26 | 37 | 50 | Percent Inhibition [21]: 33%; Percent Inhibition [22]: 61%; Percent Inhibition [23]: 18%; Percent Inhibition [24]: 55%; Percent Inhibition [25]: 21%; Percent Inhibition [26]: 42%; Percent Inhibition [27]: 12%; Percent Inhibition [28]: 41%; Percent Inhibition [29]: 56%; Percent Inhibition [30]: 47%; Percent Inhibition [31]: 45%; Percent Inhibition [32]: 41%; Percent Inhibition [33]: 36%; Percent Inhibition [34]: 28%; Percent Inhibition [35]: 63%; Percent Inhibition [36]: 93%
3 | O=c1c2cc(O)c(O)cc2oc2cc(O)cc(O)c12 [Ge-17] | 41 | 1 | -7 | 40 | 7 | 33 | 62 | 15 | 25 | 22 | 3 | 38 | 16 | 79 | 65 | 51 | 55 | 13 | 16 | 47 | Percent Inhibition [21]: 63%; Percent Inhibition [22]: 74%; Percent Inhibition [23]: 2%; Percent Inhibition [24]: 99%; Percent Inhibition [25]: 72%; Percent Inhibition [26]: 4%; Percent Inhibition [27]: -5%; Percent Inhibition [28]: 9%; Percent Inhibition [29]: 47%; Percent Inhibition [30]: 20%; Percent Inhibition [31]: 53%; Percent Inhibition [32]: 8%; Percent Inhibition [33]: 48%; Percent Inhibition [34]: 54%; Percent Inhibition [35]: 61%; Percent Inhibition [36]: 6%
